Laboratory results taken from patent publication US11980633B2, “Method for treating cancer using a combination of DNA-damaging agents and DNA-PK inhibitors” (Vertex Pharmaceuticals Incorporated, priority 2016, dated 2024).

System: primary human NSCLC tumors (dissociated cells)
Experiment: TCA: Compound B-1 with radiation (1-16 Gy), primary NSCLC tumors
Format: cell-based
Parameters: Average Bliss score: scale not given here
Procedure: In both studies, cell viability was assessed after 6 days in culture. Statistical analysis of the combination matrix was performed to assess whether synergy, additivity, or antagonism of the combination treatments were observed.
Materials: Primary patient samples (See Tables 16 and 17, below) were excised from mice when they reached 500 mg to 1000 mg in size and processed immediately, or after overnight shipment. Tumors were serially passaged by subcutaneous implantation of 50 mg to 150 mg fragments into the flanks of immunocompromised (nude) mice. Tumors were used within the first 5 or 7 passages.
Tumor Chemosensitivity Assay (TCA): Primary tumor samples were grown and serially passaged in immunocompromised mice. Tumors were mechanically dissociated into small fragments (1 mm to 2 mm) with scalpels in phosphate buffered saline (PBS or RPMI) and centrifuged at 200×g for 5 minutes at room temperature in 50 mL centrifuge tubes. Samples were resuspended in 10 mL of cell dissociation reagent and enzymatically digested with mechanical agitation for 1 to 3 hours at 37° C., 5% CO2 to a single cell suspension. Ten mL of complete RPMI-1640 media was added to the cell mixture and pipetted up and down 4 to 5 times. The mixture was then passed through a 70 μm or 100 μm mesh strainer to remove undigested tumor. The filtrate was then centrifuged 200×g for 5 minutes at room temperature and resuspended in 20 mL complete RPMI-1640. This cell suspension was slowly layered onto 20 mL of room temperature Histopaque and centrifuged at 400×g for 15 minutes at room temperature without a brake. The interface was transferred to a new 50 mL centrifuge tube and 15 mL of complete RPMI-1640 was added. This suspension was centrifuged at 200×g at room temperature, and the resulting pellet was resuspended in 10 mL of complete PC-1 media, except for pancreatic tumors in which case Pancreatic Medium was used. Cells were diluted in Trypan blue, and viable cells that excluded the dye were counted. Only the larger, tumor cells were included in the cell count. Cells were diluted in complete PC-1 or Pancreatic media, as appropriate for the cells, and were plated at 15,000 to 20,000 cells per well in 100-135 μL in ultra-low attachment U-bottom plates.
Compound Addition: For these studies, a 10 mM stock of the DNA-PK inhibitor (Compound B-1 or Compound B-2) was made in DMSO and used to add to cells from most tumors with HP D300 Digital Dispenser (Tecan US, Morrisville, NC, USA), or diluted into the appropriate media (PC-1 or pancreatic media) as a 5-10× stock and added to cells (OVX001 and ENX001, 005). PC-1, pancreatic media, and chemotherapeutics were also added so that final well volume was 150 μL. Doxorubicin was made as DMSO stock of 1 or 10 mM and added to cells for most tumors with HP D300 Digital Dispenser, or diluted into PC-1 as 5-10× stock and added to cells (OVX001 and ENX001, 005). Cisplatin (cis-diammine platinum(II), dichloride) was prepared fresh to 10 mM in warm (60° C.) distilled water and diluted in PC-1 as a 5-10× stock. […] Different starting concentrations, dose ranges, and number of doses were used for each experiment based on the response data available at the time.
In radiation experiments, a range of 1-16 Gy was administered using a cesium-137 source (GammaCell 40 Exactor, MDS Nordion, Ontario, Canada). These experiments were designed as a 6×5 matrix in triplicate. Each point of a 4-point concentration range of 0.15, 0.73, 1.5 and 2.2 μM Compound B-1 plus a ‘no treatment’ control in triplicate were added to 6 individual plates. The matrix was then assembled by exposure of each plate to 0, 1, 2, 4, 8, or 16 Gy of radiation.
Cells were cultured at 37° C., 5% CO2, 95% air and 100% relative humidity.
Viability Determination: Six days after compound addition, 75 μL of CellTiterGlo (prepared according to manufacturer's protocol) was added to each well of the compound titration plates. […]

CNC(=O)c1ccnc2c([C@H](C)CNc3cc(-c4cnc(C)nc4)ncn3)cccc12 [Compound B-1]
tumors that showed synergy or additivity (9 NSCLC tumors): 100%
tumors that showed strong synergy (three of 9 NSCLC tumors): 33%
Average Bliss score (tumor OD26131, Lung (NSCLC)): 12
Synergy/Additivity/Antagonism (tumor OD26131, Lung (NSCLC)): Strongly Synergistic (greater than 10 are considered strongly synergistic)
Average Bliss score (tumor OD26749, Lung (NSCLC)): 7
Synergy/Additivity/Antagonism (tumor OD26749, Lung (NSCLC)): Synergistic (greater than 5 are considered synergistic)
Average Bliss score (tumor OD29498, Lung (NSCLC)): 2
Synergy/Additivity/Antagonism (tumor OD29498, Lung (NSCLC)): Additive (Values between 5 and −5 are considered additive)
Average Bliss score (tumor OD33117, Lung (NSCLC)): 9
Synergy/Additivity/Antagonism (tumor OD33117, Lung (NSCLC)): Synergistic (greater than 5 are considered synergistic)
Average Bliss score (tumor OD33966, Lung (NSCLC)): 8
Synergy/Additivity/Antagonism (tumor OD33966, Lung (NSCLC)): Synergistic (greater than 5 are considered synergistic)
Average Bliss score (tumor OD35982, Lung (NSCLC)): 5
Synergy/Additivity/Antagonism (tumor OD35982, Lung (NSCLC)): Additive (Values between 5 and −5 are considered additive)
Average Bliss score (tumor OD36088, Lung (NSCLC)): 14
Synergy/Additivity/Antagonism (tumor OD36088, Lung (NSCLC)): Strongly Synergistic (greater than 10 are considered strongly synergistic)
Average Bliss score (tumor TS110310, Lung (NSCLC)): 16
Synergy/Additivity/Antagonism (tumor TS110310, Lung (NSCLC)): Strongly Synergistic (greater than 10 are considered strongly synergistic)
Average Bliss score (tumor YAS111611, Lung (NSCLC)): 1
Synergy/Additivity/Antagonism (tumor YAS111611, Lung (NSCLC)): Additive (Values between 5 and −5 are considered additive)
